Our source for the glucose uptake values is patent publication EP3598902A1, “VITAMIN B2 AND ITS USE” (Société des Produits Nestlé S.A., priority 2014, dated 2016).

This test has as its system L6 differentiated muscle cells. Description: glucose uptake (radiolabelled 2-deoxy-D-[1,2 3H] glucose) in differentiated muscle cells, absence of insulin. The class given is cell-based. Particulars: ingredient G 1 µM, ingredient K 10 nM, versus control or basal condition. The protocol:
Ingredient G refers to vitamin B2, ingredient k refers to 1,25-dihydroxyvitamin D3, and ingredient J refers to zinc chloride.
Ingredient G was tested at 1 µM. Ingredient K was tested at 10 nM, and ingredient J was tested at 20 µM.
Each ingredient was tested in triplicate.

Each structure is given as a SMILES string.

On to `Cc1cc2nc3c(=O)[nH]c(=O)nc-3n(C[C@H](O)[C@H](O)[C@H](O)CO)c2cc1C` [ingredient G, vitamin B2], for which the glucose uptake result reads like this: (long term incubation (24 hrs)) “increases in glucose uptake were observed”; (short term incubation (2 hrs), ingredient J 20 µM) “increases in glucose uptake were observed”.
